From US20110183848A1, “Piperazine Compounds With Herbicidal Effect” (BASF SE, priority 2008, published 2011) come the findings set out here.

Assay [1] concerns SETIT. As to the kind of experiment: greenhouse test, post-emergence treatment. The assay is classed as in vivo, Setaria italica. To be noted: application rate 1.0 kg/ha, scale 0 to 100. The source says: (§1) The culture containers used were plastic flowerpots containing loamy sand with approximately 5.8% of humus as the substrate. The seeds of the test plants were sown separately for each species.
(§2) For the post-emergence treatment, the test plants were first grown to a height of 3 to 15 cm, depending on the plant habit, and then treated with the active compounds which had been suspended or emulsified in water. For this purpose, the test plants were either sown directly and grown in the same containers, or they were first grown separately as seedlings and transplanted into the test containers a few days prior to treatment.
(§3) Depending on the species, the plants were kept at 10-25° C. or 20-35° C. The test period extended over 2 to 4 weeks. During this time, the plants were tended, and their response to the individual treatments was evaluated.
(§4) Evaluation was carried out using a scale from 0 to 100. 100 means no emergence of the plants, or complete destruction of at least the aerial moieties, and 0 means no damage, or normal course of growth. A good herbicidal activity is given at values of at least 70 and a very good herbicidal activity is given at values of at least 85.
(§5) The plants used in the greenhouse experiments belonged to the following species: […]

In assay [2] the test system is ECHCG. The assay can be described thus: greenhouse test, post-emergence treatment. The assay is classed as in vivo, Echinochloa crus-galli. To be noted: application rate 1.0 kg/ha, scale 0 to 100.
From the text: as §1, §2, §3, §4, §5

The test system of assay [3] is CHEAL. As to the kind of experiment: greenhouse test, post-emergence treatment. The assay is classed as in vivo, Chenopodium album. To be noted: application rate 0.5 kg/ha, scale 0 to 100.
From the text: as §1, §2, §3, §4, §5

In assay [4] the test system is SETFA. The assay can be described thus: greenhouse test, post-emergence treatment. The assay is classed as in vivo, Setaria faberi. To be noted: application rate 1.0 kg/ha, scale 0 to 100.
From the text: as §1, §2, §3, §4, §5

The test system of assay [5] is LOLMU. As to the kind of experiment: active compound combinations, pre-emergence greenhouse test (Colby synergy). The assay is classed as in vivo, Lolium multiflorum.
From the text: as §1
(§6) For the pre-emergence treatment, the active compounds, which had been suspended or emulsified in water, were applied directly after sowing by means of finely distributing nozzles. The containers were irrigated gently to promote germination and growth and subsequently covered with transparent plastic hoods until the plants had rooted. This cover caused uniform germination of the test plants, unless this has been impaired by the active compounds.
(§7) The respective stated components A and B were formulated as a 5% by weight strength or 10% by weight strength emulsion concentrate, or a commercial formulation of component B was used, and, with addition of the amount of solvent system, introduced into the spray liquor used for applying the active compound. In the examples, the solvent used was water.
(§8) The test period extended over 20 or 21 days. During this time, the plants were tended, and their reactions to the treatments with the active compounds were monitored.
(§9) In the examples below, using the method of S. R. Colby (1967) “Calculating synergistic and antagonistic responses of herbicide combinations”, Weeds 15, p. 22ff., the value E, which is expected when the activity of the individual active compounds is only additive, was calculated.
(§10) If the value determined experimentally is higher than the value E calculated according to Colby, a synergistic effect is present.
(§11) Here, a.s.=active substance, based on 100% active compound. In the use examples 15 and 16, the values E calculated according to Colby are stated in brackets) ( ).
(§12) What was evaluated was the damage by the chemical compositions using a scale of from 0 to 100%, in comparison to the untreated control plants. 0 means no damage, and 100 means complete destruction of the plants.

Assay [6] concerns ALOMY. The assay is described as above. The assay is classed as in vivo, Alopecurus myosuroides.
From the text: as §1, §6, §7, §8, §9, §10, §11, §12

Assay [7] deals with SETFA. The description is as above. The assay is classed as in vivo, Setaria faberi.
From the text: as §1, §6, §7, §8, §9, §10, §11, §12

Setting [8] is: use example 14, application rate a.s. 31.25 g/ha.
The mark [9] stands for this setting: use example 14, application rate a.s. 62.5 g/ha.
The mark [10] stands for this setting: use example 14, application rate a.s. 125 g/ha.
Where [11] appears, read: use example 14, application rate a.s. 250 g/ha.
Setting [12] is: use example 14, application rate a.s. 3.12 g/ha.
[13] abbreviates: use example 14, application rate a.s. 12.5 g/ha.
Setting [14] is: use example 14, application rate a.s. 25 g/ha.

Take `C=CCCN1C(=O)C(=Cc2ccccc2C#N)N(C)C(=O)C1(C)Cc1ccccc1` (stereo not drawn) [I-19]: the “herbicidal activity against SETIT” value in assay [1] is “very good (a very good herbicidal activity is given at values of at least 85)”. Also, the “herbicidal activity against ECHCG” value in assay [2] is listed as “very good (a very good herbicidal activity is given at values of at least 85)”.

For `CCCCCN1C(=O)C(=Cc2ccccc2C#N)N(C)C(=O)C1(C)Cc1ccccc1` (stereo not drawn) [I-21], in assay [3], the “herbicidal activity against CHEAL” value was “very good (a very good herbicidal activity is given at values of at least 85)”.

Take `CN1C(=O)C(C)(Cc2ccccc2)N(CC2CC2)C(=O)C1=Cc1ccccc1C#N` (stereo not drawn) [I-25]: the “herbicidal activity against SETFA” value in assay [4] is “very good (a very good herbicidal activity is given at values of at least 85)”.

Regarding `CCOc1ncccc1CC1C(=O)N(COC)C(C)(Cc2ccccc2)C(=O)N1C` (stereo not drawn) [II-26], the “Herbicidal activity in % after 20 days against LOLMU” value worked out at 0% in assay [5] (setting [8]), 15% in assay [5] (setting [9]) and 98% in assay [5] (setting [10]). The “Herbicidal activity in % after 20 days against ALOMY” value in assay [6] (setting [8]) amounted to 30%; in assay [6] (setting [9]), 60%; in assay [6] (setting [10]), 90%; in assay [6] (setting [11]) it was 95%. The results for the “Herbicidal activity in % after 20 days against SETFA” value in assay [7] (setting [8]), in assay [7] (setting [10]) and in assay [7] (setting [11]) were 10%, 75% and 100%, respectively.

With `CCNc1nc(Cl)nc(NC(C)C)n1` [atrazine], the “Herbicidal activity in % after 20 days against LOLMU” value stood at 0% in assay [5] (application rate a.s. 125 g/ha) and 20% in assay [5] (application rate a.s. 250 g/ha). Further, the “Herbicidal activity in % after 20 days against ALOMY” value in assay [6] (application rate a.s. 125 g/ha) was determined as 35%; in assay [6] (application rate a.s. 250 g/ha) it was 65%.

For `Cn1nc(C(F)(F)F)c(CS(=O)(=O)C2=NOC(C)(C)C2)c1OC(F)F` [pyroxasulfone], the figures for the “Herbicidal activity in % after 20 days against LOLMU” value in assay [5] (setting [12]), in assay [5] (setting [13]) and in assay [5] (setting [14]) were 15%, 75% and 80%, respectively. In addition, the “Herbicidal activity in % after 20 days against ALOMY” value in assay [6] (setting [12]) was 25%; in assay [6] (setting [13]), 95%; in assay [6] (setting [14]), 95%. Besides, the “Herbicidal activity in % after 20 days against SETFA” value in assay [7] (setting [12]) is listed as 0%; in assay [7] (use example 14, application rate a.s. 6.25 g/ha), 25%; in assay [7] (setting [14]) it was 95%.
